# Source: patent US20220125841A1, “SODIUM F[…] A REVERSAL AGENT FOR AN ANTI-F[…] T CELLS AND FLUORESCEIN-PHOSPHOLIPID-ETHERS OR PROFLUORESCEIN-PHOSPHOLIPID-ETHERS” (Seattle Children's Hospital (dba Seattle Children'a …, priority 2019, published 2022)
# Tests used:
# [1] = system: antiFL(FITC-E2) CAR T cells; experiment: MDA-MB-231 xenograft mouse model: monitoring of cytokine release syndrome (CRS) and cytotoxicity; format: in vivo, mice
# Text: FIG. 2B depicts levels of cytokine release syndrome (CRS) and cytotoxicity in an MDA-MB-231 adenocarcinoma tumor xenograft mouse model over time. FIG. 2B (lower panel) is an enlargement of an area of FIG. 2B (upper panel).
# After an adenocarcinoma (MDA-MB-231) tumor was established in 2 groups of mice by subcutaneous injection (2 tumors per mouse in opposite flanks), the mice received an intravenous injection of antiFL(FITC-E2) CART cells on day 6. The control group (no drug) only received the antiFL(FITC-E2) CAR T cells and the tumor progressed as normal. […] The mice were monitored for cytokine release syndrome (CRS) and cytotoxicity on a scale ranging from 1 (healthy) to 5 (dead) (FIG. 2B). On day 17, the intratumoral dose of FL-PLE was increased to 2 μg per tumor. On day 18, the mice had levels of CRS/toxicity between 3 and 4 at which point they received a dose of 0.56 mg of NaFL via an intravenous injection. […] After this, all doses of FL-PLE were administered at 1 μg per tumor.
# antiFL(Mut2) CAR T cells [2] = experiment: In vivo intravenous use of NaFL to reverse cytokine toxicity by antiFL CAR T cells (Example 4); parameters: species or system mice
# Method: Group A—control (5 mice): MDA-MB-231 tumor+antiFL(Mut2) CAR T cells.
# Group B—FL-PLE without NaFL (5 mice): MDA-MB-231 tumor+antiFL(Mut2) CAR T cells+1 mg IV FL-PLE.
# Group C—FL-PLE and NaFL (5 mice): MDA-MB-231 tumor+antiFL(Mut2) CAR T cells+1 mg IV FL-PLE+0.5 mg IV NaFL (as needed).
# Group D—No tumor control (3 mice): antiFL(Mut2) CAR T cells+1 mg IV FL-PLE+0.5 mg IV NaFL (as needed).
# Mice receiving FL-PLE (Groups B, C, and D) were administered FL-PLE IV first. AntiFL(Mut2) CAR T cells were subsequently administered in all mice 2 days following FL-PLE administration. […] Reduction of cytokine toxicity symptoms in mice of Groups C and D was observed within 15 minutes after administration of NaFL.
# antiFL(Mut2) CAR T cells [3] = experiment: Cytokine release assay with dose titration of NaFL (Example 3); format: cell-based
# Method: FIG. 3D depicts a cytokine release assay measuring IL-2 using the effector cells generated in FIG. 3A-B, target cells tested in FIG. 3C, and a dose titration of NaFL (0, 1, 5, or 10 μM).
# FIG. 3E depicts a cytokine release assay measuring IFN-γ using the effector cells generated in FIG. 3A-B, target cells tested in FIG. 3C, and a dose titration of NaFL (0, 1, 5, or 10 μM).
# FIG. 3F depicts a cytokine release assay measuring TNF-α using the effector cells generated in FIG. 3A-B, target cells tested in FIG. 3C, and a dose titration of NaFL (0, 1, 5, or 10 μM).
# CD4+ and CD8+ T cells from peripheral blood mononuclear cell preparations from two donors were lentivirally transduced to express long CAR cassettes comprising the antiFL(Mut2) CAR. The CAR cassette also contains the gene for a double mutant dihydrofolate reductase that allows for methotrexate positive selection to enrich for transduced CAR-expressing cells as well as the gene for the truncated CD19 (CD19t) surface marker that denotes CAR positivity. The selected cells are then subjected to a standard rapid expansion protocol using irradiated TM-LCL and PBMC feeder cells. After 14 days of expansion, cells were stained with anti-CD4, anti-CD8, and anti-CD19 antibodies as well as a live-dead stain to characterize surface phenotypes by flow cytometry. Flow plots for the CD4 and CD8 populations (FIG. 3A) and CAR positivity (FIG. 3B) are shown for mock and antiFL(Mut2) CAR T cells for both donors. These are the effector cells to be used in subsequent experiments.
# A cytokine release assay was set up to examine how a dose titration of NaFL (0, 1, 5, and 10 μM) affects the activation of antiFL CAR T cells. The CAR T cells are the antiFL(Mut2) CAR T cells generated in this example. Target cells were incubated with FL-PLE/NaFL for 24 hours or overnight. The media supernatant from target cell cultures were harvested and constituent cytokines were measured (e.g. with a Bio-Plex Human Cytokine Screening Panel). The cytokines IL-2 (FIG. 3D), IFN-γ (FIG. 3E), and TNF-α (FIG. 3F) were measured.
# [4] = system: antiFL(FITC-E2) CAR T cells; experiment: Chromium release assay and cytokine release assay, antiFL(FITC-E2) CAR T cells with FL-PLE-loaded K562 target cells; format: cell-based; conditions: 50 μM NaFL; K562 target cells with 5 μM FL-PLE
# Method: FIG. 1B depicts a chromium release assay for effector T cells (CD8+ Mock or CD8+ antiFL(FITC-E2) CAR(Lg) T cells) mixed at various ratios with target cells (effector:target, E:T). The target cells are K562 control, K562 OKT3+, and K562 with 5 μM FL-PLE. One CD8+ antiFL(FITC-E2) population was exposed to 50 μM NaFL.
# FIG. 1C depicts a cytokine release assay for helper cells (CD4+ Mock or CD4+ antiFL(FITC-E2) CAR(Lg) T cells) and effector T cells (CD8+ Mock or CD8+ antiFL(FITC-E2) CAR(Lg) T cells) mixed with target cells. The target cells are K562 control, K562 OKT3+, and K562 with 5 μM FL-PLE. One CD4+ and CD8+ antiFL(FITC-E2) population was exposed to 50 μM NaFL.
# K562 (leukemia) cells were incubated with FL-PLE overnight. Cell integration of FL-PLE was analyzed by flow cytometry (FIG. 1A). There was a clear shift from the control K562 parental with the K562 parental incubated with 5 μM FL-PLE. This slight shift corresponded to a difference in the amount of FL exposed on the surface of the cell for CAR T cell recognition. These cells were used in a chromium release assay (FIG. 1B) and a cytokine release assay (FIG. 1C) to test whether the activation of CD8+ and CD4+ antiFL(FITC-E2) CAR T cells through FL-PLE integrated into K562 cells could be stopped in the presence of sodium fluorescein (NaFL). […]
smiles,measurement,setting,value
"O=C([O-])c1ccccc1-c1c2ccc(=O)cc-2oc2cc([O-])ccc12.[Na+].[Na+] [NaFL, sodium fluorescein]",Time for cytotoxicity level to return to roughly baseline levels after NaFL,[1]; 0.56 mg NaFL intravenous injection on day 18,≤ 12 h
same,Cytotoxicity level after NaFL,[1]; 0.56 mg NaFL intravenous injection on day 18 at CRS/toxicity level 3 to 4,"Within minutes, the cytotoxicity level had dropped"
same,Tolerability in vivo,"antiFL(Mut2) CAR T cells [2]; 0.5 mg IV NaFL, mice",well tolerated
same,Time to reduction of cytokine toxicity symptoms after administration of NaFL,"antiFL(Mut2) CAR T cells [2]; Groups C and D, 0.5 mg IV NaFL",≤ 15 min
same,Cytokine levels after NaFL,"antiFL(Mut2) CAR T cells [2]; Groups C and D, 2 days following first administration of NaFL, optionally with additional IV injections",comparable to baseline
same,"Amount of activation of antiFL(Mut2) CAR T cells (IL-2, IFN-γ, TNF-α) versus amount of NaFL","antiFL(Mut2) CAR T cells [3]; NaFL 0, 1, 5, and 10 μM, all three cytokines, both donor T cells",decreased by the amount of NaFL present in the solution in a linear fashion
same,Effect of NaFL on IL-2 release by antiFL(Mut2) CAR T cells,"antiFL(Mut2) CAR T cells [3]; NaFL 0, 1, 5, or 10 μM, FIG. 3D",dose dependent
same,Effect of NaFL on IFN-γ release by antiFL(Mut2) CAR T cells,"antiFL(Mut2) CAR T cells [3]; NaFL 0, 1, 5, or 10 μM, FIG. 3E",dose dependent
same,Effect of NaFL on TNF-α release by antiFL(Mut2) CAR T cells,"antiFL(Mut2) CAR T cells [3]; NaFL 0, 1, 5, or 10 μM, FIG. 3F",dose dependent
same,Effect of NaFL on recognition and activation of antiFL(FITC-E2) CAR T cells,[4],able to stop the recognition and activation
